{"source": "ChEMBL document CHEMBL4033609", "about": "“Naphthablins B and C, Meroterpenoids Identified from the Marine Sediment-Derived Streptomyces sp. CP26-58 Using HeLa Cell-Based Cytological Profiling” (J Nat Prod, 2017)", "key": {"[1]": {"system": "HeLa", "experiment": "Growth inhibition of human HeLa cells at 33 uM", "format": "functional", "details": "read-out: GI"}, "[2]": {"system": "HeLa", "experiment": "Cytotoxic activity against human HeLa cells at 1.91 uM by cytological profiling assay", "format": "functional, cell-based"}, "[3]": {"system": "HeLa", "experiment": "Cytotoxic activity against human HeLa cells at 0.382 uM by cytological profiling assay", "format": "functional, cell-based"}, "[4]": {"system": "HeLa", "experiment": "Cytotoxic activity against human HeLa cells at 1.47 uM by cytological profiling assay", "format": "functional, cell-based"}, "[5]": {"system": "HeLa", "experiment": "Cytotoxic activity against human HeLa cells at 0.295 uM by cytological profiling assay", "format": "functional, cell-based"}, "[6]": {"system": "HeLa", "experiment": "Cytotoxic activity against human HeLa cells at 1.25 to 10 uM by cytological profiling assay", "format": "functional, cell-based"}, "[7]": {"system": "HeLa", "experiment": "Cytotoxic activity against human HeLa cells", "format": "functional, cell-based"}}, "note": "Calls of active or inactive are those of the source. The calls are words filed in the database; no cut-off is given here."}
{"smiles": "CCC(C)C(=O)O[C@H]1C[C@H]2[C@@H](C[C@H]1C)C1=C(OC2(C)C)C(=O)c2c(cc(O)c3c2O[C@@H]2[C@@H](O)OC[C@]32C)C1=O", "note": "(some centres undefined)", "values": [{"measurement": "inhibition of growth at 33 µM", "setting": "[1]", "result": 25, "unit": "%"}]}
{"smiles": "CNc1ccc2oc(C[C@H]3O[C@@]4(CC[C@H]3C)O[C@H]([C@H](C)C(=O)c3ccc[nH]3)[C@H](C)C[C@H]4C)nc2c1C(=O)O", "values": [{"measurement": "Activity", "setting": "[2]", "result": "Active"}, {"measurement": "Activity", "setting": "[3]", "result": "Active"}]}
{"smiles": "CC(C)C(=O)O[C@H]1C[C@H]2[C@@H](C[C@H]1C)C1=C(OC2(C)C)C(=O)c2c(cc(O)c3c2O[C@@H]2[C@@H](O)OC[C@]32C)C1=O", "values": [{"measurement": "inhibition of growth at 33 µM", "setting": "[1]", "result": 32, "unit": "%"}]}
{"smiles": "C=CC(C)(CO)c1c(O)cc2c(c1O)C(=O)C1=C(C2=O)[C@@H]2C[C@@H](C)[C@@H](OC(=O)C(C)C)C[C@@H]2C(C)(C)O1", "note": "(some centres undefined)", "values": [{"measurement": "inhibition of growth at 33 µM", "setting": "[1]", "result": 19, "unit": "%"}]}
{"smiles": "C[C@H](CCC(=O)O)C[C@H](C)C[C@H](C)C(=O)/C=C(\\O)[C@H](C)C[C@H](C)C/C=C/[C@@H](C)[C@@H](O)[C@@H](C)[C@@H](O)C[C@@H]1CC[C@@](C)([C@H]2CC[C@@](C)([C@@H](C)O)O2)O1", "values": [{"measurement": "Activity", "setting": "[4]", "result": "Active"}, {"measurement": "Activity", "setting": "[5]", "result": "Active"}]}
{"smiles": "CO[C@@H](C)[C@H]1C[C@H](C)[C@H]([C@@H](C)/C=C/[C@@H]2CC[C@@H](C)[C@H](/C(=C/[C@H]3CCC[C@@H](C)[C@@H]3[C@H](C)C(=O)C3=C(O)COC3=O)CO)O2)O1", "note": "[TETRONASIN 5930]", "values": [{"measurement": "Activity", "setting": "[6]", "result": "Active"}, {"measurement": "IC50", "setting": "[7]", "result": 0.23, "unit": "µM"}]}
